US20230233533A1, “COMPOSITIONS, METHODS OF TREATING AND PREVENTING FUNGAL INFECTIONS, AND METHODS OF INHIBITING PRP8 INTEIN EXPRESSION” (Health Research, Inc., priority 2020, published 2023)
Converted amounts (≈) assume the structure as drawn.

Columns and labels:
Prp8 intein [1] = biological target: T1, Prp8 intein (Cryptococcus gattii, UniProt E6R027); assay: Split GFP-Prp8i intein splicing assay; assay type: biochemical; settings: split GFP-Prp8 intein splicing
Description: Cloning, expression and purfication—The split GFP-Prp8i was constructed using a mega-PCR mutagenesis approach. […] After digestion with Dpn I restriction enzyme, the PCR product was transformed into DH5α Escherichia coli. Clones were verified by plasmid DNA sequencing. The expression, refolding and purification of the GFP-Prp8i fusion protein were carried out as described previously.
[…] Then 100 μl 2×TCEP was added to a final concentration of 20 μM. The reactions were incubated at 25° C. overnight. […] Two readings were taken, one prior to addition of TCEP (I0) and one after incubation overnight with TCEP (If). Fluorescence/luminescence differences (ΔFluorescence or ΔLuminescence) were defined as If−I0 for each well. […] DMF control served as 100% splicing activity.
(§1) Split GFP-Prp8 and CJGFP-Prp8 intein splicing assays—Using black and clear bottom 96-well plates, the DPNB-treated, -refolded and -concentrated GFP-Prp8 or CfGFP-Prp8 fusion protein (0.5 μM) was incubated with compounds or Dimethylsulfoxide (DMSO) solvent control for 30 min at 25° C. in a 100 μl intein splicing buffer (20 mM Bis-tris propane, 0.5 M NaCl, 0.5 M arginine, 1 mM EDTA, and 0.05% CHAPS). Then 100 μl 2×TCEP was added to a final concentration of 20 μM. The reactions were incubated at 25° C. overnight. […] Two readings were taken, one prior to addition of TCEP (I0) and one after incubation overnight with TCEP (If). Fluorescence/luminescence differences (ΔFluorescence or ΔLuminescence) were defined as If−I0 for each well. […] DMSO control served as 100% splicing activity.

C. neoformans H99 strain = assay: Fungal susceptibility test, broth microdilution MIC; assay type: cell-based, Cryptococcus neoformans; settings: Cryptococcus neoformans, H99STRAIN; C. neoformans H99, microbroth dilution; read-out: MIC H99
Description: Fungal susceptibility test—The fungal susceptibility test was carried out with a compound concentration series as described. […] The broth microdilution method was used to determine the compound MIC values against C. neoformans.
Fungal susceptibility test—The fungal susceptibility test was carried out with a compound concentration series as described. […] Microbes. Infect. […] The broth microdilution method was used to determine the compound MIC values against C. neoformans.

in vitro = assay type: cell-based, human; settings: human, CC50 A549
Description: Cytotoxicity—Cytotoxicity assays were carried out using human lung carcinoma cell line A549, as described (Chen et al., “Selective Inhibition of the West Nile Virus Methyltransferase by Nucleoside Analogs,” Antiviral Research 97(3):232-239 (2013), which is hereby incorporated by reference in its entirety). Briefly, the A549 cells (5×10^3) were incubated with/without compounds in a 96-well plate at 37° C. for 48 h. Cell viability was determined using the MTT assay (ATCC) as was described previously (Chen et al., “Selective Inhibition of the West Nile Virus Methyltransferase by Nucleoside Analogs,” Antiviral Research 97(3):232-239 (2013) and Brecher et al., “Identification and Characterization of Novel Broad-Spectrum Inhibitors of the Flavivirus Methyltransferase,” ACS Infectious Diseases 1(8):340-349 (2015), both of which are hereby incorporated by reference in their entirety). N=3.
Cytotoxicity—Cytotoxicity assays were carried out using human lung carcinoma cell line A549, as described. Chen et al., “Selective Inhibition of the West Nile Virus Methyltransferase by Nucleoside Analogs,” Antiviral Res. 97:232-9 (2013), which is hereby incorporated by reference in its entirety. Briefly, the A549 cells (5×10^3) were incubated with/without compounds in a 96-well plate at 37° C. for 48 h. Cell viability was determined using the MTT assay (ATCC) as was described previously (Chen et al., “Selective Inhibition of the West Nile Virus Methyltransferase by Nucleoside Analogs,” Antiviral Research 97(3):232-239 (2013) and Brecher et al., “Identification and Characterization of Novel Broad-Spectrum Inhibitors of the Flavivirus Methyltransferase,” ACS Infectious Diseases 1(8):340-349 (2015), both of which are hereby incorporated by reference in their entirety). N=3.

Prp8 intein [2] = biological target: T1, Prp8 intein; assay: Split Renilla luciferase RLuc-Prp8 intein splicing assay; assay type: biochemical; settings: split Renilla luciferase RLuc-Prp8 intein splicing
Description: Split luciferase Prp8 intein splicing assay—The split RLuc-Prp8 fusion protein was carried out and monitored using a Veritas luminometer, as described previously.
(§2) Split luciferase RLuc-Prp8 and NnLuc-Prp8 intein splicing assays—The split RLuc-Prp8 intein splicing assay was carried out and monitored using a Veritas luminometer, as described previously. […] Microbes. Infect. […] For NnLuc-Prp8 intein splicing assay, the NnLuc-prp8 is diluted in assay buffer (50 mM Tris, 0.1% BSA, 1 mM EDTA, pH 7.4) and 50 ul is added to each well in 96 well black plates. Test molecules or the solvent was added and incubated for 30 to 60 min. A splicing inducer TCEP (50 ul, 100 μM) is added and incubated for 24 h. Luciferase substrate (Furimazine, 25 ul 1:10,000 diluted) is added and luminescence is read using a luminescence reader. IC50 is calculated using Graphpad prism.

Prp8 intein [3] = biological target: T1, Prp8 intein; assay: Split Cys-free (Cf) GFP-Prp8 intein splicing assay; assay type: biochemical; settings: read-out: IC50 CfGFP-Prp8 (converted)
Description: (§3) The constructs for Cys-free (Cf) GFP-Prp8 and Cys-free nanoluciferase NnLuc-Prp8 were codon-optimized, synthesized, and cloned into the pET28a vector using the NcoI and XhoI sites by Gene Universal (Gene Universal, Newark Del.). […] The expression, refolding and purification of the CfGFP-Prp8 and NnLuc-Prp8 fusion proteins were carried out as described previously. […] Microbes. Infect.
as §1

Prp8 intein [4] = biological target: T1, Prp8 intein; assay: Split nanoluciferase NnLuc-Prp8 intein splicing assay; assay type: biochemical
Description: as §3, §2

T1 sequence (E6R027 entry or part of it): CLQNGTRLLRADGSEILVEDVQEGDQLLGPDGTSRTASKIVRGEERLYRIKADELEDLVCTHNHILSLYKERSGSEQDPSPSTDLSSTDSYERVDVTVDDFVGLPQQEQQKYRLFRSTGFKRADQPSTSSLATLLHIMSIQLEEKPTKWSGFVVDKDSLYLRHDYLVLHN

Row | SMILES | IC50 (Prp8 intein [1]) [µM] | MIC (C. neoformans H99 strain) [µM] | CC50 at 48 h (in vitro) [µM] | IC50 (Prp8 intein [2]) [µM] | IC50 (Prp8 intein [3]) [µM] | IC50 (Prp8 intein [4]) [µM]
1 | O=C(Nc1ccccc1F)c1ncsc1S(=O)(=O)c1ccc(Cl)cc1 [JMX0516, 5-((4-Chlorophenyl)sulfonyl)-N-(2-fluorophenyl)thiazole-4-carboxamide] | 49.3 | > 100 | 144 | 13.3 |  | 
2 | O=C(Nc1cc(F)cc(C(F)(F)F)c1)c1ncsc1S(=O)(=O)c1ccc(Cl)cc1 [JMX0522, 5-((4-Chlorophenyl)sulfonyl)-N-(3-fluoro-5-(trifluoromethyl)phenyl) thiazole-4-carboxamide] | 23.5 | 100 (≈ 46.5 µg/mL) | 97.7 | 20.2 |  | 
3 | O=C(Nc1ccc(F)nc1)c1ncsc1S(=O)(=O)c1ccc(Cl)cc1 [JMX0524, 5-((4-Chlorophenyl)sulfonyl)-N-(6-fluoropyridin-3-yl)thiazole-4-carboxamide] | > 50 | > 100 | 174 | 7.8 |  | 
4 | O=C(Nc1cccc(F)c1)c1ncsc1S(=O)(=O)c1ccc(Cl)cc1 [JMX0517, 5-((4-Chlorophenyl)sulfonyl)-N-(3-fluorophenyl)thiazole-4-carboxamide] | > 50 | > 100 | 161 | 28.4 |  | 
5 | O=C(Nc1ccc(C(F)(F)F)nc1)c1ncsc1S(=O)(=O)c1ccc(Cl)cc1 [JMX0523, 5-((4-Chlorophenyl)sulfonyl)-N-(6-(trifluoromethyl)pyridin-3-yl) thiazole-4-carboxamide] | > 50 | > 100 | 114 | 37.1 |  | 
6 | O=C(Nc1ccc(F)cc1)c1ncsc1S(=O)(=O)c1ccc(Cl)cc1 [JMX0525, 5-((4-Chlorophenyl)sulfonyl)-N-(4-fluorophenyl)thiazole-4-carboxamide] | > 50 | > 100 | 309 | 6.4 |  | 
7 | O=C(Nc1ccc(F)cc1)c1nnsc1[S+]([O-])c1ccc(Cl)cc1 (centres unmarked) [JMX0565-1, 5-((4-Chlorophenyl)sulfinyl)-N-(4-fluorophenyl)-1,2,3-thiadiazole-4-carboxamide] | 7.1 | 0.097 (≈ 0.037 µg/mL) | 32.5 | 16.6 |  | 
8 | O=C(Nc1ccc(Cl)cc1)c1ncsc1S(=O)(=O)c1ccc(Cl)cc1 [JMX0518, N-(4-Chlorophenyl)-5-((4-chlorophenyl)sulfonyl)thiazole-4-carboxamide] | 28 | 50 (≈ 20.7 µg/mL) | 57.3 | 6.5 |  | 
9 | O=C(NCc1ccc(F)cc1)c1nnsc1S(=O)(=O)c1ccc(Cl)cc1 [JMX0574, 5-((4-Chlorophenyl)sulfonyl)-N-(4-fluorobenzyl)-1,2,3-thiadiazole-4-carboxamide] | 1.6 | 0.78 (≈ 0.321 µg/mL) | 21.5 | 59.1 |  | 
10 | O=C(Nc1ccc(Cl)cc1Cl)c1ncsc1S(=O)(=O)c1ccc(Cl)cc1 [JMX0519, 5-((4-Chlorophenyl)sulfonyl)-N-(2,4-dichlorophenyl)thiazole-4-carboxamide] | 50 | > 100 | 245 | 11.7 |  | 
11 | O=C(Nc1ccc(F)cc1F)c1ncsc1S(=O)(=O)c1ccc(Cl)cc1 [JMX0515, 5-((4-Chlorophenyl)sulfonyl)-N-(2,4-difluorophenyl)thiazole-4-carboxamide] | > 50 | > 100 | 210 | 37.7 |  | 
12 | O=C(NCc1ccc(F)cc1)c1ncsc1S(=O)(=O)c1ccc(Cl)cc1 [JMX0541, 5-((4-Chlorophenyl)sulfonyl)-N-(4-fluorobenzyl)thiazole-4-carboxamide] | > 50 | 100 (≈ 41.1 µg/mL) | 114 | 10.6 |  | 
13 | O=C(Nc1ccc(F)cc1)c1nnc(S(=O)(=O)c2ccc(Cl)cc2)s1 [JMX0585-1, 5-((4-chlorophenyl)sulfonyl)-N-(4-fluorophenyl)-1,3,4-thiadiazole-2-carboxamide] | 5.7 | 3.12 (≈ 1.24 µg/mL) | 26 | 19.4 |  | 
14 | O=C(Nc1ccc(F)c(F)c1)c1nnsc1S(=O)(=O)c1ccc(Cl)cc1 [JMX876, 5-((4-Chlorophenyl)sulfonyl)-N-(3,4-difluorophenyl)-1,2,3-thiadiazole-4-carboxamide] |  | 3.12 (≈ 1.3 µg/mL) | 163 |  | 33.5 | 22
15 | O=C(Nc1ccc(F)cc1)c1nnsc1S(=O)(=O)c1ccc(F)cc1 [JMX1061, N-(4-Fluorophenyl)-5-((4-fluorophenyl)sulfonyl)-1,2,3-thiadiazole-4-carboxamide] |  | > 50 | 71.7 |  | 51.3 | 23.7
16 | O=C(Nc1ccc(F)cc1)c1nnsc1[S+]([O-])c1cccc(C(F)(F)F)c1 (centres unmarked) [JMX1063-2, N-(4-Fluorophenyl)-5-((3-(trifluoromethyl)phenyl)sulfinyl)-1,2,3-thiadiazole-4-carboxamide] |  | 6.25 (≈ 2.6 µg/mL) | 93.8 |  | 29.2 | 12.4
17 | O=C(Nc1cc(F)cc(Cl)c1)c1nnsc1S(=O)(=O)c1ccc(Cl)cc1 [JMX1036, N-(3-Chloro-5-fluorophenyl)-5-((4-chlorophenyl)sulfonyl)-1,2,3-thiadiazole-4-carboxamide] |  | 1.56 (≈ 0.674 µg/mL) | 70.9 |  | 32.9 | 21.4
18 | O=C(Nc1ccc(F)cc1)c1nnsc1S(=O)(=O)c1cccc(C(F)(F)F)c1 [JMX1063, N-(4-Fluorophenyl)-5-((3-(trifluoromethyl)phenyl)sulfonyl)-1,2,3-thiadiazole-4-carboxamide] |  | 6.25 (≈ 2.7 µg/mL) | 137 |  | 35 | 28.2
19 | Cc1ccc(NC(=O)c2nnsc2[S+]([O-])c2ccc(Cl)cc2)cc1 (centres unmarked) [JMX1033-2] |  | > 50 | 74.6 |  | 47.3 | 3.8
20 | O=C(Nc1cc(F)cc(C(F)(F)F)c1)c1nnsc1S(=O)(=O)c1ccc(Cl)cc1 [JMX1040, 5-((4-chlorophenyl)sulfonyl)-N-(3-fluoro-5-(trifluoromethyl)phenyl)-1,2,3-thiadiazole-4-carboxamide] |  | 3.12 (≈ 1.45 µg/mL) | 56.3 |  | 32.8 | 20.6
